For orientation: Kd means the free concentration of one partner at which half of the binding sites on the other are occupied at equilibrium, for simple one-to-one binding. A low value points to tighter binding.

We go through 1 compound from article PMC10182447 (BioImpacts : BI, 2022).

Each structure is given as a SMILES string.

This experiment addresses Human serum albumin (HSA) (Homo sapiens, UniProt P02768). The experiment in a line: fluorescence quenching titration. It counts as binding.

Chain of Human serum albumin (HSA) (P02768 25-609): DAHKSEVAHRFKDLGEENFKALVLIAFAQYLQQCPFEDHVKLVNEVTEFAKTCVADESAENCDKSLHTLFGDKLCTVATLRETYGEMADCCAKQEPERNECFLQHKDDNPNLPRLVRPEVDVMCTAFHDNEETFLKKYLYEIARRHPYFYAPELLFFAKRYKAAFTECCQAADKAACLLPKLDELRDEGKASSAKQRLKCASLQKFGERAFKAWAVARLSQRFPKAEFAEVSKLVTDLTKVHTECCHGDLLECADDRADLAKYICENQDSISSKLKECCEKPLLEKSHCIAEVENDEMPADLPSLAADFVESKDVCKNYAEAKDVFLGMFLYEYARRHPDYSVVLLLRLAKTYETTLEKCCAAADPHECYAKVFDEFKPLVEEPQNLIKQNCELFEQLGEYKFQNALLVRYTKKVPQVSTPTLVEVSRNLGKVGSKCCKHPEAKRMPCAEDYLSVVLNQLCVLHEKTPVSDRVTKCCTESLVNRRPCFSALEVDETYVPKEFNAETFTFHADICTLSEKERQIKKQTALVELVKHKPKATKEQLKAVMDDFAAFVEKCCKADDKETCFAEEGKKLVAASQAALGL

`CCCCCCCCc1ccc(CCC(N)(CO)CO)cc1` [Fingolimod] had a Kd of 235 µM.
